Key:
Settings in all cases: after 15 washes
[1] = Example 2C: azo dye in multicomponent kit (silicone & carbon-hybrid system), color result and wash fastness
Experimental: (§1) Pretreatment to Apply Cationic Polymer (PEI, Polyethylenimine) on the Hair Fiber Surface: • 1 ml of PEI solution (0.5% aqueous solution of PEI (MW: 75 kDa) is applied on the hair strand. • The hair strand is dried via blow-dryer, followed by further drying at 40° C. in the oven.
100 mg azo dye are mixed with 400 mg isocyanate polymer (Melio 09-S-11); 9.3 g 1-Methoxy-2-propanol are added and the mixture is well shaked.
(§2) Subsequently, 200 mg OH Silicone (Silmer OHT C-50) are added to the reaction mixture. The mixture is stirred at room temperature for 5 min. 1 g of the above prepared formulation is applied on a pre-treated hair tress (as described above) and the polymers are allowed to react to start forming a film immobilizing the added dye. After removing the excess of the formulation, the film forming reaction is completed as the hair tress is dried via a heat blower.

[2] = Example 2A: azo dye in multicomponent kit (Michael addition), color result and wash fastness
Experimental: as §1
100 mg azo dye is suspended in 1 g THF, and 8.4 g Isododecane (2,2,4,6,6-pentamethylheptane) solution are added as solvent. Subsequently, 200 mg Silmer OH ACR DI-10 polymer (acrylate derivative) and 300 mg Silamine 2972 is added to the reaction mixture. The mixture is stirred at room temperature for 5 min.
as §2, with “1” for “Subsequently, 200 mg OH Silicone (Silmer OHT C-50) are added to the reaction mixture. The mixture is stirred at room temperature for 5 min. 1”

[3] = Example 2B: azo dye in multicomponent kit (isocyanate / OH silicone), color result and wash fastness
Experimental: as §1
100 mg azo dye are mixed with 300 mg isocyanate polymer (Silmer NCO DI50); 9.4 g 2,2,4,6,6-pentamethylheptane are added and the mixture is well shaked.
Subsequently, 200 mg OH Silicone (Silmer OHT C-50) are added to the reaction mixture. The mixture is stirred at room temperature for 5 min.
as §2, with “1” for “Subsequently, 200 mg OH Silicone (Silmer OHT C-50) are added to the reaction mixture. The mixture is stirred at room temperature for 5 min. 1”

| Compound | color remains to an extent of [1] | color remains to an extent of [2] | color remains to an extent of [3] |
| --- | --- | --- | --- |
| CCN(CCO)c1ccc(/N=N/c2nc(N3CCN(C)CC3)c(C=C3C(=O)c4ccccc4C3=O)s2)cc1 [black azo, 2-[[2-[(E)-[4-[ethyl(2-hydroxyethyl)amino]phenyl]azo]-4-(4-methylpiperazin-1-yl)thiazol-5-yl]methylene]indane-1,3-dione] | 80% | 30% | 50% |
| CCN(CCO)c1ccc(/N=N/c2nc(Cl)c(C=C3C(=O)c4ccccc4C3=O)s2)cc1 [blue azo, 2-{[4-chloro-2-((E)-{4-[ethyl(2-hydroxyethyl)amino]phenyl}diazenyl)-1,3-thiazol-5-yl]methylidene}-1H-indene-1,3(2H)-dione] | 80% | 80% | 90% |

Source: patent publication US11904042B2, “Hair coloring composition and methods for its application and removal” (HFC Prestige International Holding Switzerland S.a.r.l, priority 2018, dated 2024)
